Data taken from patent publication EP0171342A1, “Substituted 2-(1-amino-akylidenyl)1,3-indane diones, process for their preparation and their therapeutical use” (priority 1984, dated 1986).
Converted amounts (≈) assume the structure as drawn. Read-outs that look alike come from different tables or passages of the source.

Legend:
souris [1] = experiment: Antidepressant activity: potentiation of yohimbine toxicity in mice; format: in vivo; settings: mouse, yohimbine 15 mg/kg s.c. (non-lethal dose), test product oral 100 mg/kg
Experimental: (§1) L'activité antidépressive a été déterminée dans le test de potentialisation de la toxicité de la yohimbine et dans le test de l'inhibition du ptosis induit par la réserpine.
(§2) On injecte par voie sous cutanée à des souris, lh avant l'administration par voie orale du produit à tester, une dose non léthale de yohimbine soit 15 mg/kg. Le COR3760 administré à la dose de 100 mg/kg entraine 80% de mortalité dans ces conditions. Des souris reçoivent par voie orale le produit à tester 90 mn avant l'injection par voie intrapéritonéale de 5 mg/kg de réserpine solubilisée. On cote le ptosis selon un index allant de 0 à 6, la cote 0 correspondant à un ptosis maximum et la cote 6 à l'absence de ptosis. Les COR3760 et COR4011 conduisent dans les conditions de l'expérience à un ptosis coté à 4 pour une dose de respectivement 200 et 50 mg/kg.

[2] = system: rat soumis à une surcharge hydrique; experiment: Diuretic activity in rats given a water overload, oral; format: in vivo; settings: rat, water overload, oral; for response vs control in vivo at 20 mg/kg: read-out: facteur multipliant l'excrétion urinaire du sodium
Outline: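 Oral dosing (5–80 mg/kg) to rats under water overload, or to rats and mice under saline overload. Urine volume and excreted sodium and potassium measured over 6 h, expressed as change versus control animals; Na/K ratio also derived.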

[3] = system: segments d'iléon de cobaye isolés; experiment: Anticholinergic activity: acetylcholine-induced contractions of isolated guinea pig ileum; settings: Cavia porcellus; contractions induced by 0,1 microg/ml acetylcholine; read-out: concentration qui inhibe ces contractions de 80%
From the text: L'activité anticholinergique a été appréciée par la mesure des contractions induites par 0,1 microg/ml d'acétylcholine sur des segments d'iléon de cobaye isolés. Les COR3760, COR3789, COR3792, COR4003, COR4008, COR4010, COR4014 utilisés respectivement aux concentrations de 50, 25, 25, 50, 25, 10, 25 microg/ml inhibent ces contractions de 80%.

[4] = system: souris soumis à une surcharge saline; experiment: Diuretic activity in mice given a saline overload, oral; format: in vivo; settings: mouse
Experimental: (§3) L'activité diurétique a été déterminée sur plusieurs modèles expérimentaux. Chez le rat soumis à une surcharge hydrique, administrés par voie orale à la dose de 20 mg/kg, le COR3760, le COR3789, le COR3792, le COR4002, le COR4003, le COR4009, le COR4010, le COR4012 et le COR4014 multiplient l'excrétion urinaire du sodium par respectivement un facteur 2,9 - 3,1 - 5,9 - 2,6 - 7,2 - 3,5 - 3,8 - 2,9 - 2,4. Administrés à la dose de 10 mg/kg, dans les mêmes conditions, les COR3760, COR3789, COR3792, COR4003 et COR4010 multiplient l'excrétion sodique par respectivement 2,3 - 2,9 - 2,8 - 2,4 et 2,5. La spironolactone multiplie quant à elle l'excrétion sodique d'un facteur 3,6 à la dose de 20 mg/kg. Administré à la dose de 5 mg/kg dans les mêmes conditions, le COR3792 multiplie l'excrétion sodique par 3,3. Administré par voie orale chez le rat ou la souris soumis à une surcharge saline, le COR3760 augmente l'excrétion urinaire volumétrique mesurée à la sixième heure de respectivement 49, 119 et 134% chez la souris et 28, 84 et 116% chez le rat après administration de 10, 20, et 40 mg/kg. Le COR3760 a été administré par voie orale au rat soumis à une surcharge hydrique et l'excrétion urinaire volumétrique, le sodium et le potassium excrétés ont été mesurés sur une période de 6 heures; ces paramètres ont varié de respectivement +17%, +102%, +165% à 10 mg/kg, +19%, +147%, +180% à 20 mg/kg et +36%, +415% et +239% à 40 mg/kg; le rapport Na/K passe de 0,56 chez les animaux témoins à 0,4 à 10 mg/kg, 0,49 à 20 mg/kg et 0, 8 à 40 mg/ kg. Au cours d'une seconde expérimentation, le COR3760 a entrainé des variations de +19%, +157%, +70% à 40 mg/kg, +19%, +319%, +90% à 60 mg/kg et +29%, +472% et +77% à 80 mg/kg; le rapport Na/K passe de 0,59 chez les animaux témoins à 0,88 à 40, 1,15 à 60 et 1,88 à 80 mg/kg.

souris [5] = experiment: Acute toxicity (mortality, LD50) in mice; format: in vivo; settings: mouse
[6] = Acute toxicity (mortality, LD50) in mice; format: in vivo; settings: in vivo; mouse, oral, in solution in Tween 20%; read-out: DL50 (the source's name)
[7] = system: poumon de cobaye isolé perfusé; experiment: Bronchodilator activity: isolated perfused guinea pig lung contracted by methacholine; settings: flow of Tyrode solution, lung contracted by 0,05 microg/ml methacholine; read-out: concentration qui augmente ce débit de 50%
From the text: L'activité bronchodilatatrice a été déterminée in vitro par la mesure du débit d'une solution de Tyrode à travers un poumon de cobaye isolé perfusé, contracté par l'addition au fluide de perfusion de 0,05 microg/ml de méthacholine. Les COR3760, COR3789, COR3792, COR4003, COR4008, COR4010 et COR4014 utilisés respectivement aux concentrations de 50, 50, 100, 10, 50, 50 et 10 microg/ml augmentent ce débit de 50%. L'aminophylline entraine cette même activité à la concentration de 100 microg/ml.

souris [8] = experiment: Antidepressant activity: inhibition of reserpine-induced ptosis in mice; format: in vivo; settings: mouse, oral 200 mg/kg 90 min before reserpine 5 mg/kg i.p.; index 0 (maximum ptosis) to 6 (no ptosis)
Experimental: as §1, §2

[9] = system: rat soumis à une surcharge saline; experiment: Diuretic activity in rats given a saline overload, oral; format: in vivo
Experimental: as §3

[10] = molecular target: oreillettes droites de cobaye (Cavia porcellus, UniProt P47747); experiment: Anti-H2 activity: histamine-induced chronotropic effect on unstimulated guinea pig right atria
Sequence of oreillettes droites de cobaye (P47747 whole entry): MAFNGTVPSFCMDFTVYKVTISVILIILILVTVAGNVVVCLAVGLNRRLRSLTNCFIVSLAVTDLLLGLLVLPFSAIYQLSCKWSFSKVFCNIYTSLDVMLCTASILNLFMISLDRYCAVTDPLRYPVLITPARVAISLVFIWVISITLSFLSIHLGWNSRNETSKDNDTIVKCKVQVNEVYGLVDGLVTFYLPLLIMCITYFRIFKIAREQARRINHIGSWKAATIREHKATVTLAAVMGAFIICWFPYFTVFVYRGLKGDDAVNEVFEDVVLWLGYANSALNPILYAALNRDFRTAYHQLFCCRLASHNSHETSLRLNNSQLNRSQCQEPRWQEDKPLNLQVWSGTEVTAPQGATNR

[11] = system: oedème induit par l'injection intraplantaire de carragénine chez le rat; experiment: Anti-inflammatory activity: carrageenan paw oedema in rats; format: in vivo; settings: oral 1 h before carrageenan, measured 3 h after, dose 10b mg/kg [sic]
Experimental: L'activité antiinflammatoire a été déterminée chez le rat par la mesure de l'inhibition de l'oedème induit par l'injection intraplantaire de 0,1 ml d'une suspension à 1% de carragénine chez le rat. Les produits à tester sont administrés par voie orale lh avant l'injection de carragénine et la mesure est réalisée 3h après cette injection. Les COR3789, COR3792, COR4003, COR4008 et COR4010 administrés à 10b mg/kg entrainent respectivement 43, 42, 41, 38 et 39% d'inhibition. Administré à 200 mg/kg, le COR3773 entraine 53% d'inhibition. L'aspirine administrée dans les mêmes conditions à 150 mg/kg entraine 40% d'inhibition de l'oedème.

[12] = system: rat Wistar soumis à une surcharge saline; experiment: Diuretic activity in selected Wistar rats given a saline overload (modified Wiebelhaus test); format: in vivo
Outline: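 Selected Wistar rats under saline overload (modified Wiebelhaus test) received compound at 20 mg/kg. Urine volume and sodium excretion were measured over 6 h, expressed as % increase, with Na/K ratio also assessed.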

[13] = system: segments isolés d'iléon de cobaye; experiment: Antihistamine activity: histamine-induced contraction of isolated guinea pig ileum; settings: 50 microg/ml, response induced by 0,5 microg/ml histamine
From the text: L'activité antihistaminique a été appréciée in vitro par l'inhibition de la réponse contractile de segments isolés d'iléon de cobaye induite par 0,5 microg/ml d'histamine.

[14] = first experiment, 10 mg/kg, 6 hours
[15] = first experiment, 20 mg/kg, 6 hours
[16] = first experiment, 40 mg/kg, 6 hours

## CNC(C)=C1C(=O)c2ccccc2C1=O [COR3760, (Méthylamino-1 éthylidène)-2 indanedione-1,3]
Souris [1]
  mortalité: 80%
[2]; first experiment, 10 mg/kg (controls 0,56)
  rapport Na/K: 0,4
[2]; [14]
  variation de l'excrétion urinaire volumétrique: +17%
  variation du potassium excrété: +165%
  variation du sodium excrété: +102%
[2]; first experiment, 20 mg/kg (controls 0,56)
  rapport Na/K: 0,49
[2]; [15]
  variation de l'excrétion urinaire volumétrique: +19%
  variation du potassium excrété: +180%
  variation du sodium excrété: +147%
[2]; [16]
  variation de l'excrétion urinaire volumétrique: +36%
  variation du potassium excrété: +239%
  variation du sodium excrété: +415%
[2]; 10 mg/kg
  facteur multipliant l'excrétion sodique: 2,3
[2]; 20 mg/kg
  response vs control in vivo at 20 mg/kg: 290%
[2]; second experiment, 40 mg/kg
  variation de l'excrétion urinaire volumétrique: +19%
  variation du potassium excrété: +70%
  variation du sodium excrété: +157%
[2]; second experiment, 40 mg/kg (controls 0,59)
  rapport Na/K: 0,88
[2]; second experiment, 60 mg/kg
  variation de l'excrétion urinaire volumétrique: +19%
  variation du potassium excrété: +90%
  variation du sodium excrété: +319%
[2]; second experiment, 60 mg/kg (controls 0,59)
  rapport Na/K: 1,15
[2]; second experiment, 80 mg/kg
  variation de l'excrétion urinaire volumétrique: +29%
  variation du potassium excrété: +77%
  variation du sodium excrété: +472%
[2]; second experiment, 80 mg/kg (controls 0,59)
  rapport Na/K: 1,88
[3]
  IC80: 50 µg/mL (≈ 248 µM)
[4]; 10 mg/kg
  augmentation de l'excrétion urinaire volumétrique mesurée à la sixième heure: 49%
[4]; 20 mg/kg
  augmentation de l'excrétion urinaire volumétrique mesurée à la sixième heure: 119%
[4]; 40 mg/kg
  augmentation de l'excrétion urinaire volumétrique mesurée à la sixième heure: 134%
Souris [5]; intraperitoneal, 200 mg/kg
  mortalité: aucune mortalité
Souris [5]; oral, 300 mg/kg
  mortalité: aucune mortalité
[6]
  LD50: 736 mg/kg
[7]
  EC50: 50 µg/mL (≈ 248 µM)
Souris [8]
  ptosis coté: 4
[9]; 10 mg/kg
  augmentation de l'excrétion urinaire volumétrique mesurée à la sixième heure: 28%
[9]; 20 mg/kg
  augmentation de l'excrétion urinaire volumétrique mesurée à la sixième heure: 84%
[9]; 40 mg/kg
  augmentation de l'excrétion urinaire volumétrique mesurée à la sixième heure: 116%

## CCC(NC)=C1C(=O)c2ccccc2C1=O [COR4003, (Méthylamino-1 propylidényl)-2 indanedione-1,3]
[2]; 10 mg/kg
  facteur multipliant l'excrétion sodique: 2,4
[2]; 20 mg/kg
  response vs control in vivo at 20 mg/kg: 720%
[10]; at the concentration inhibiting the histamine effect by 50 % (COR4003 100, COR4011 50 microg/ml)
  effet chronotrope négatif intrinsèque: ne présentant pas d'effet chronotrope négatif intrinsèque
[10]; chronotropic effect induced by 5 microg/ml histamine, read-out: concentration qui inhibe de 50 % cet effet chronotrope (converted)
  IC50: 465 µM
[3]
  IC80: 50 µg/mL (≈ 232 µM)
[11]
  inhibition de l'oedème: 41%
[12]; 6 h, read-out: augmentation de l'excrétion urinaire volumétrique mesurée au bout de 6 heures
  change in vivo at 20 mg/kg: 56%
[12]; read-out: augmentation de l'excrétion urinaire du sodium
  change in vivo at 20 mg/kg: 56%
Souris [5]; intraperitoneal, 200 mg/kg
  mortalité: aucune mortalité
Souris [5]; oral, 300 mg/kg
  mortalité: aucune mortalité
[7]
  EC50: 10 µg/mL (≈ 46.5 µM)
[13]
  inhibition de la réponse contractile: inhibe cette réponse
